How the values were obtained:
[1] = test system: coxsackie B4 virus; assay: In vitro CPE assay in mammalian cell culture, B4; type: cell-based; details: Enterovirus B, viral cytopathic effect in mammalian cell culture, read-out: B4 inhibition capacity (IC50)
[2] = test system: coxsackie B1 virus; assay: In vitro CPE assay in mammalian cell culture, B1; type: cell-based; details: viral cytopathic effect in mammalian cell culture, read-out: B1 inhibition capacity (IC50)
[3] = Metabolic stability in rat liver microsomes; type: in vitro ADME; details: 5 μM test item, 0.125 mg/mL microsomal protein
Protocol: (§1) Metabolic stability in human and rat liver microsomesMetabolic stability was studied using human (HLM) or rat (RLM) liver microsomes. The final composition of the assay included 5 μM of test item and reference item (Diclofenac or Imipramine) prepared from DMSO stock, so that the final concentration of DMSO was 0.1%, 0.125 mg/mL microsomal protein and cofactors (5.0 mM G-6-P, 0.06 U/mL G-6-PDH, 2.0 mM MgCl2, 1.0 mM NADP^+). Test and reference items were incubated with human or rat liver microsomes with or without cofactors. The reaction mixture (100 μL) was removed at specified time periods and the reaction was stopped by addition of stop solution. The samples were extracted in presence of internal standard and were analyzed using LC-MS/MS. The percent of the test/reference item remaining after a specified incubation period was calculated with respect to the peak area ratio at time 0 min.

[4] = test system: coxsackie B3 virus; assay: In vitro CPE assay in mammalian cell culture, B3; type: cell-based; details: Enterovirus B, viral cytopathic effect in mammalian cell culture, read-out: B3 inhibition capacity (IC50)
[5] = biological target: PI4KIIIβ (Homo sapiens, UniProt Q9UBF8); assay: Phosphatidyl inositol kinase inhibition assay (ADP-Glo Kinase Assay); type: biochemical
Chain of PI4KIIIβ (Q9UBF8 whole entry): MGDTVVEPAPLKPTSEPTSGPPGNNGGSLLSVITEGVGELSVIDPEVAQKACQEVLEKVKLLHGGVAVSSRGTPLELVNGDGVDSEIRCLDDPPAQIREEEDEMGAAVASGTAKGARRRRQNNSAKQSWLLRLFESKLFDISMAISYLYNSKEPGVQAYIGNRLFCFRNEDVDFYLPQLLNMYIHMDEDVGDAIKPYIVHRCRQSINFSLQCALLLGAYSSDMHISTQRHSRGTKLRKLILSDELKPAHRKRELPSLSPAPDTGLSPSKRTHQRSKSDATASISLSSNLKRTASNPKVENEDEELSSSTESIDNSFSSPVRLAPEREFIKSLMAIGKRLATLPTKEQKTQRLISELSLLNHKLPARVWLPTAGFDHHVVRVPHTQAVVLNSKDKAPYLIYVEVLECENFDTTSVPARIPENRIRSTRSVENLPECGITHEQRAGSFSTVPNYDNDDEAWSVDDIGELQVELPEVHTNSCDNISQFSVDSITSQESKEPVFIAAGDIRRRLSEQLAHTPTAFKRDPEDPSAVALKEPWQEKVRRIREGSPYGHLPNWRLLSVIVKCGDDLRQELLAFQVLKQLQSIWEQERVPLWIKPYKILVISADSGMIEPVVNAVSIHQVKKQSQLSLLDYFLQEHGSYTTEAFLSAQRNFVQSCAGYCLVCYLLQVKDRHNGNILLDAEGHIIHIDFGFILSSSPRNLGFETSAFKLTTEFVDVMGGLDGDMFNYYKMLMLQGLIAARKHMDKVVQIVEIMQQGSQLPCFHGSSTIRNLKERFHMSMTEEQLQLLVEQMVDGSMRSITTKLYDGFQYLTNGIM
Protocol: (§2) Phosphatidyl inositol kinase inhibition assay Inhibition of PI4 kinases was studied using the ADP-Glo™ Kinase Assay which is a luminescent kinase assay that measures ADP formed from a kinase reaction, wherein ADP is converted into ATP, which is converted into light by Ultra-Glo™ Luciferase. The assay is performed in two steps; first, after the kinase reaction, an equal volume of ADP-Glo™ Reagent is added to terminate the kinase reaction and deplete the remaining ATP. In the second step, the Kinase Detection Reagent is added, which simultaneously converts ADP to ATP and allows the newly synthesized ATP to be measured using a coupled luciferase/luciferin reaction. The luminescent signal produced is proportional to the activity of the kinase. Inhibition of PI3 kinases was studied using the HTRF (homogeneous time-resolved fluorescence) assay, which is a universal method for identifying and characterizing the phosphotransferase activity induced by any ATP/ADP dependent target. The formation of ADP was detected by a specific monoclonal antibody labeled with Eu^3+ cryptate, and directly correlated with the amount of phosphorylated substrate.

[6] = biological target: PI4KIIIα (Homo sapiens, UniProt P42356); assay: as above; type: biochemical; details: * no inhibition at the highest tested concentration 1 μM
Chain of PI4KIIIα (P42356 whole entry): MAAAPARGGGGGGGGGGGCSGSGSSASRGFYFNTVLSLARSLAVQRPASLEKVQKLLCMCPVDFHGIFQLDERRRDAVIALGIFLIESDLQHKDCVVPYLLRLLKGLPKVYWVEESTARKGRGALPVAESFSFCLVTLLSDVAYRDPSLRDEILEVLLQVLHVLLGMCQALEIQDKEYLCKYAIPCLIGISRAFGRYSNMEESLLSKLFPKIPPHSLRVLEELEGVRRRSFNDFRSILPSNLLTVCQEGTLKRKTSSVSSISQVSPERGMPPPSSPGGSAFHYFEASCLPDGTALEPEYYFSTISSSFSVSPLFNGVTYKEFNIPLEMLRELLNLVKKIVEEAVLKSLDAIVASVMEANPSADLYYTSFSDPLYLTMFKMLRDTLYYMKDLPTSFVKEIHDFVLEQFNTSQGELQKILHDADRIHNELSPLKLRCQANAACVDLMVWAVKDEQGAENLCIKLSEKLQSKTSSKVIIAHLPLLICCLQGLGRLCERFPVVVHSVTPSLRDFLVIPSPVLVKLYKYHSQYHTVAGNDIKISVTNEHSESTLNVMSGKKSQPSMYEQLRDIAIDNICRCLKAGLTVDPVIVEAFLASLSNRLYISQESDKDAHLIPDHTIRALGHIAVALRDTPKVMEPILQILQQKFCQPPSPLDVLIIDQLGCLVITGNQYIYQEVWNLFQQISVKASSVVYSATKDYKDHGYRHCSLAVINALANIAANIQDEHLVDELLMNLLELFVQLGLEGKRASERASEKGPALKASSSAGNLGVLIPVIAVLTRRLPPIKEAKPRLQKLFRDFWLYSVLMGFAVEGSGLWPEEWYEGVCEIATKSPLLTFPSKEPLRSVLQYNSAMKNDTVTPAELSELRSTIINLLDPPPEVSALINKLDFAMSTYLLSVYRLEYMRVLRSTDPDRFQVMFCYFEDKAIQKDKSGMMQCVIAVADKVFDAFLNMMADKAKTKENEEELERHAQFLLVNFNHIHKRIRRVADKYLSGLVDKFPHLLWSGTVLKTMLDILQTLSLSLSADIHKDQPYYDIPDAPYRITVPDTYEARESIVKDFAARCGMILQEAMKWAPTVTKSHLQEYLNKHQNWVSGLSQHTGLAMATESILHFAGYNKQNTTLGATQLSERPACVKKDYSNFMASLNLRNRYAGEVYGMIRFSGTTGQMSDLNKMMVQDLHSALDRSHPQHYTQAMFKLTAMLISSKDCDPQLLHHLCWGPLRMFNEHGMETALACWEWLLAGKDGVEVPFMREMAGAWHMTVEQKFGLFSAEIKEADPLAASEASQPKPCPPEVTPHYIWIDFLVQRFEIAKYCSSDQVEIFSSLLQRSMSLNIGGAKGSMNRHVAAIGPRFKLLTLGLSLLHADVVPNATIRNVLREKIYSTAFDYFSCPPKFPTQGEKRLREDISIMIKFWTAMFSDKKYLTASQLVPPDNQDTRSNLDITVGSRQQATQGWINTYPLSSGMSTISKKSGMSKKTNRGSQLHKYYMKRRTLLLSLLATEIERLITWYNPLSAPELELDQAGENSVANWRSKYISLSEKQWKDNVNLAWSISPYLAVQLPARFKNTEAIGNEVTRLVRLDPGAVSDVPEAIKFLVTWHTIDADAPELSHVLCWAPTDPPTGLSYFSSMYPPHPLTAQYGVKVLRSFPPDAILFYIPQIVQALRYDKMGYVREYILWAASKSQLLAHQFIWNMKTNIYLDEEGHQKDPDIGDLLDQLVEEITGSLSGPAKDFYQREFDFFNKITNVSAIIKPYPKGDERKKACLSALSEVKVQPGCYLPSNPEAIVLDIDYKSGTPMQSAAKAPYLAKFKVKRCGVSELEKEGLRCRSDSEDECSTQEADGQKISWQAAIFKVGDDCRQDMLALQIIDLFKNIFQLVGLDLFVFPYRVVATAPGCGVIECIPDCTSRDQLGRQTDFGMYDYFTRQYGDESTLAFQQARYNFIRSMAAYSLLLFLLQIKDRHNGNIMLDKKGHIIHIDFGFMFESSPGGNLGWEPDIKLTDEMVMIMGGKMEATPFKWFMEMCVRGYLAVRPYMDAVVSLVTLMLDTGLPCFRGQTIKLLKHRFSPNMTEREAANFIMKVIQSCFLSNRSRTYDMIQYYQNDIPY
Protocol: as §2

[7] = test system: coxsackie B5 virus; assay: In vitro CPE assay in mammalian cell culture, B5; type: cell-based; details: viral cytopathic effect in mammalian cell culture, read-out: B5 inhibition capacity (IC50)
[8] = Metabolic stability in human liver microsomes; type: in vitro ADME; details: for Remaining after 1 h, HLM: human liver microsomes, 5 μM test item, 0.125 mg/mL microsomal protein; for half-life at 5 μM: human, microsomes
Protocol: as §1

[9] = in vivo; design: species or system Sprague Dawley rats; details: male, Sprague Dawley, rat, po, 50 mg/kg
Protocol: Overnight fasted animals were administered with the test compounds in recommended vehicle 0.4% (v/v) Tween 80+2% (v/v) Glycerol and 15% w/v HPBCD by oral route with a dose of 50 mg/kg body weight at dose volume of 10 mL/kg bw. Under mild isoflurane anesthesia, blood samples were collected into pre-labeled tubes containing anticoagulant (K2EDTA—2 mg/mL blood) during the next 24 hours post dose. Collected blood samples were centrifuged at 4000 rpm, 4° C. for 10 minutes and plasma was separated and stored at −80° C. until analysis.

[10] = test system: coxsackie B2 virus; assay: In vitro CPE assay in mammalian cell culture, B2; type: cell-based; details: viral cytopathic effect in mammalian cell culture, read-out: B2 inhibition capacity (IC50)
[11] = test system: Enterovirus 30; assay: In vitro CPE assay in mammalian cell culture, EV30; type: cell-based; details: viral cytopathic effect in mammalian cell culture, read-out: EV30 inhibition capacity (IC50)
[12] = biological target: PI3Kβ (Homo sapiens, UniProt P42338); assay: PI3 kinase inhibition HTRF assay; type: biochemical; details: * no inhibition at the highest tested concentration 1 μM
Protocol: as §2

[13] = biological target: PI3Kα (Homo sapiens, UniProt P42336); assay: PI3 kinase inhibition HTRF assay; type: biochemical; details: * no inhibition at the highest tested concentration 1 μM
Chain of PI3Kα (P42336 whole entry, species assumed): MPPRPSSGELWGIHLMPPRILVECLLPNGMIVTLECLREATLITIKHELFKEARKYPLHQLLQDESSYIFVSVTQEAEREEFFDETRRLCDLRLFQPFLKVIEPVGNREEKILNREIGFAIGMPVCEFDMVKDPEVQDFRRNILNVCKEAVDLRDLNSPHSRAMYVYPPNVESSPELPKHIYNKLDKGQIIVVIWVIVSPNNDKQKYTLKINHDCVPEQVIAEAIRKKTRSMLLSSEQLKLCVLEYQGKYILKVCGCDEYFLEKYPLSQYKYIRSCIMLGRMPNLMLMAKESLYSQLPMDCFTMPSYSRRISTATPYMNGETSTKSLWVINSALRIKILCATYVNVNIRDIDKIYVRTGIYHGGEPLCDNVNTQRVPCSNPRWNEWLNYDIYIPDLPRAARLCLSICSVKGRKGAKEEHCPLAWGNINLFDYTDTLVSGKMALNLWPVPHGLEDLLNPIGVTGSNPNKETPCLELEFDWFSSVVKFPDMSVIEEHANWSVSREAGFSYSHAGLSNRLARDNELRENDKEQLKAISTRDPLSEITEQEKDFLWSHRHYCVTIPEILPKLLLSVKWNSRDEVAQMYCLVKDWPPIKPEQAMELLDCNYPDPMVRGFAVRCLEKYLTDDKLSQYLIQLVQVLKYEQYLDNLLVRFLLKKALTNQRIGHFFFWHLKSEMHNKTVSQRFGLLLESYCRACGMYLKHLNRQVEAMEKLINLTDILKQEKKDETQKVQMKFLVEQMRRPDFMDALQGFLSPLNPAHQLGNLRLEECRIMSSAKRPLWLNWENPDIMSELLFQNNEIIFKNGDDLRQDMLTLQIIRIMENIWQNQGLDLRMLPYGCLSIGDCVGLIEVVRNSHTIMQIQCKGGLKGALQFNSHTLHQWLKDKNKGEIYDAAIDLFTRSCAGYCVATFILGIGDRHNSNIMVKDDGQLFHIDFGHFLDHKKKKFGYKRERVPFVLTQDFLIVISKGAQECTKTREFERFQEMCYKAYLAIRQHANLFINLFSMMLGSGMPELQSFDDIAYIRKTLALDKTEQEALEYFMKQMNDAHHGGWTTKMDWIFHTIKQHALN
Chain of PI3Kα (P27986 whole entry partner, species assumed): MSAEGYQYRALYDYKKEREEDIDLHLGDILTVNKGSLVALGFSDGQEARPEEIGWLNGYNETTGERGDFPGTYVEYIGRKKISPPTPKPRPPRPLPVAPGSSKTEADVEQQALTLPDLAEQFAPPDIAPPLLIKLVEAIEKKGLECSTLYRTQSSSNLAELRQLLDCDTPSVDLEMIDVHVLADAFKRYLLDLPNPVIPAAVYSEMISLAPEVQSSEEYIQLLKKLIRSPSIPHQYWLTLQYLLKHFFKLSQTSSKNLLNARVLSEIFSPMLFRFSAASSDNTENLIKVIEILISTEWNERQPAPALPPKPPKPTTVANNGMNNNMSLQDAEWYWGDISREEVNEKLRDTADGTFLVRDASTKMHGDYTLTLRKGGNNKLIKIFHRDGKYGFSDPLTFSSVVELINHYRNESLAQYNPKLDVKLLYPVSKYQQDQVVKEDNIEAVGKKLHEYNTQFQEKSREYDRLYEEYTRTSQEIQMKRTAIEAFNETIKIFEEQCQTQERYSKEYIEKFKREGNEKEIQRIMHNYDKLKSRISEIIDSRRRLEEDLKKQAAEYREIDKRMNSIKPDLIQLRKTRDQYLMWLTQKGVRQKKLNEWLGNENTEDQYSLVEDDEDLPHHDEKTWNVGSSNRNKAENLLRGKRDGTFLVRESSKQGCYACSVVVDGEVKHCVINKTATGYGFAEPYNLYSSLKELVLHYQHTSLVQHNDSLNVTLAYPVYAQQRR
Protocol: as §2

[14] = test system: Enterovirus 68; assay: In vitro CPE assay in mammalian cell culture, EV68; type: cell-based; details: Enterovirus D, viral cytopathic effect in mammalian cell culture, read-out: EV68 inhibition capacity (IC50)
[15] = test system: polio virus Sabin 1; assay: organism not typed; type: cell-based; details: read-out: Polio 1 inhibition capacity (IC50)
[16] = in vitro; type: in vitro ADME; details: plasma, pH 7.4
Protocol: Plasma protein binding study was performed by using a Rapid Equilibrium Dialysis (RED) device containing dialysis membrane with a molecular weight cut-off of 8,000 Daltons. Each dialysis insert contains two chambers. The red chamber was for the plasma while the white chamber was for the buffer. The human and rat plasma (pH adjusted to 7.40) samples of test items and reference items (Warfarin and Propranolol) were prepared at a required test concentration of 5 μM using 5 mM DMSO stocks (final DMSO concentration was 0.1%). 300 μL of plasma sample was added into the sample chamber. 500 μL of buffer was added into the buffer chamber. After sealing the RED device with an adhesive film, incubation was done at 37° C. with shaking at 300 rpm for 4 h. Following incubation, an aliquot of 50 μL was removed from each well (plasma and buffer side) and diluted with equal volume of opposite matrix to nullify the matrix effect. The specimens were subjected to sample extraction in presence of internal standard by liquid-liquid extraction/protein precipitation method. After extraction, the samples were transferred into labeled auto sampler vials and submitted to LC-MS/MS analysis.

[17] = test system: Enterovirus 71; assay: In vitro CPE assay in mammalian cell culture, EV71; type: cell-based; details: Enterovirus A, viral cytopathic effect in mammalian cell culture, read-out: EV71 inhibition capacity (IC50)
[18] = test system: Enterovirus 6; assay: In vitro CPE assay in mammalian cell culture, EV6; type: cell-based; details: viral cytopathic effect in mammalian cell culture, read-out: EV6 inhibition capacity (IC50)

SMILES | IC50 [1] [nM] | IC50 [2] [nM] | Remaining after 1 h, RLM [3] [%] | IC50 [4] [nM] | IC50 [5] [nM] | IC50 [6] [nM] | IC50 [7] [nM] | Remaining after 1 h, HLM [8] [%] | half-life at 5 μM [8] [h] | AUC(0-inf) [9] [µg·h/mL] | AUC(0-t) [9] [µg·h/mL] | AUCextrap [9] [%] | Cmax [9] [µg/mL] | MRT last [9] [h] | Tmax [9] [h] | half-life [9] [h] | IC50 [10] [nM] | IC50 [11] [nM] | IC50 [12] [nM] | IC50 [13] [nM] | other results
Cc1cc(NCc2ccncc2)n2nc(C)c(-c3ccc4c(c3)c(C)nn4C)c2n1 [Example 8, 3-(1,3-dimethyl-1H-indazol-5-yl)-2,5-dimethyl-N-(pyridin-4-ylmethyl)pyrazolo[1,5-a]pyrimidin-7-amine] | < 10 | < 0.1 | 90 | < 0.1 | 0.9 | 1300 | < 0.1 | 86 | > 2 | 197 ± 27.1 | 185 ± 13.3 | 5.7 ± 6.1 | 12.9 ± 0.7 | 6.8 ± 0.8 | 1.7 ± 0.6 | 5.4 ± 2.5 | < 0.1 | < 1 | 1500 | > 1000 | IC50 [14]: < 0.1 nM; IC50 [15]: < 0.1 nM; fraction unbound at 4 h, 5 μM ([16]; human): 0.027; fraction unbound at 4 h, 5 μM ([16]; rat): 0.024; IC50 [17]: < 0.1 nM; IC50 [18]: < 100 nM
Cc1nc(NCc2ccncc2)n2nc(C)c(-c3ccc4c(c3)c(C)nn4C)c2n1 [Example 20, 8-(1,3-dimethyl-1H-indazol-5-yl)-2,7-dimethyl-N-(pyridin-4-ylmethyl)pyrazolo[1,5-a][1,3,5]triazin-4-amine] | < 10 | < 1 | 96 | < 1 | 1.2 | > 1000 | < 1 | 78 | > 2 | 115 ± 9.4 | 110 ± 8.3 | 5.1 ± 4.9 | 8 ± 1.5 | 6.8 ± 0.9 | 2 | 5 ± 2.3 | < 1 | < 10 | > 1000 | > 1000 | IC50 [14]: < 10 nM; IC50 [15]: < 1 nM; fraction unbound at 4 h, 5 μM ([16]; human): 0.906; fraction unbound at 4 h, 5 μM ([16]; rat): 0.031; IC50 [17]: < 10 nM; IC50 [18]: < 1000 nM
